Test results as given in patent US20240238218A1, “[…] A […] ACTIVE COMPOUND AND METHOD OF PREPARATION THEREOF” (GW Research Limited, priority 2021, published 2024).

Columns and labels:
RjOrl: Swiss mice = experiment: Mouse 6 Hz (44 mA) psychomotor seizure test; format: in vivo; conditions: for Forelimb clonus (mean ± s.e.m.): score 0-2
From the text: The 6 Hz Psychomotor Test, which detects anticonvulsant activity, follows that described by Brown et al. (J. Pharmacol. Exp. Ther. 107, 273-283, 1953).
Male RjOrl: Swiss mice, 5 weeks old, weighing 28-38 g at the beginning of the experiment. Animals were acclimatized to the test facility for at least 5 days after delivery and randomly housed in groups of 3-4 in macrolon cages on wood litter with free access to food and water.
Before transcorneal stimulation, a drop of tetracaine solution (2%) was applied on each eye of the mouse for local anesthesia. Between 1-10 minutes later, at the pre-treatment time specified for the test compound, the mice were administered a rectangular current (44 mA, rectangular pulse: 0.2 ms pulse width, 3 s duration, 6 Hz) via corneal electrodes connected to a constant current shock generator.
The number of seizures as reflected by forelimb clonus were recorded immediately after current administration. Forelimb clonus was scored as absent (0=no forelimb clonus), mild (1=clonus with one forelimb) and strong (2=clonus with both forelimbs).
[…] The experimenters were blinded to the treatment. The cages were randomly assigned to a treatment code, each designating one treatment group.
Compound I was administered intraperitoneally at 20 and 50 mg/kg, 30 minutes before the test, and at 100 and 200 mg/kg, 60 minutes before the test and were compared with the vehicle control (5% ethanol, 10% […], 85% physiological saline).
Valproate (300 mg/kg i.p.), administered 30 minutes before the test, was used as reference substance and was compared with the vehicle control (5% ethanol, 10% Kolliphor HS15, 85% physiological saline).
Test compound: Compound I dissolved in 5% ethanol, 10% Kolliphor HS15, 85% physiological saline.
Vehicle control: 5% ethanol, 10% Kolliphor HS15, 85% physiological saline.
Reference: Valproate (300 mg/kg), dissolved in 5% ethanol, 10% Kolliphor HS15, 85% physiological saline.
Data were assumed to be non-normally distributed based on validation data, therefore non-parametric tests were utilized. Quantitative data (scores) with the test substance were analyzed by comparing treated groups with the corresponding vehicle control using Kruskal-Wallis test with Dunn's multiple comparisons test when the Kruskal-Wallis Test was significant. Quantitative data with the reference substance was analysed using Mann-Whitney U test.

[1] = test system: mouse model of generalised seizure (tonic hind limb extensor convulsions); experiment: mini-MEST (maximal electroshock seizure threshold, minimal sample sizes) test in the mouse; conditions: 50 mg/kg i.p., 30 min post dose
Experimental: The maximal electroshock seizure threshold (MEST) test is widely utilized preclinically to evaluate pro- or anti-convulsant properties of test compounds (Loscher et al., 1991).
In the MEST test the ability of a drug to alter the seizure threshold current required to induce hind limb tonic extensor convulsions is measured according to an “up and down” method of shock titration (Kimball et al., 1957). An increase in seizure threshold is indicative of anti-convulsant effect.
The ability of a test compound to alter the stimulus intensity, expressed as current (mA), required to induce the presence of tonic hind limb extensor convulsions, is assessed in the MEST.
All animals were weighed at the beginning of the study and randomly assigned to treatment groups based on a mean distribution of body weight across groups.
The first animal within a treatment group was given a shock at the expected or estimated CC50 current. For subsequent animals, the current was lowered or raised depending on the convulsions outcome from the preceding animal in log scale intervals.
Data generated from each treatment group were used to calculate the CC50±SEM values for the treatment group.
Vehicle: (5% ethanol, 10% solutol in 85% Saline) was prepared as follows: 1 mL of ethanol, 2 mL of solutol were warmed to 60° C., in 17 mL of saline (1:2:17).
The test compound, described herein as Compound I, is as shown as Formula I. Test compound was administered at 50 mg/kg (i.p.) in a 1:2:17 ethanol:solutol:0.9% saline formulation.
The data for each treatment group were recorded as the number of +'s and 0's at each current level employed and this information is then used to calculate the CC50 value (current required for 50% of the animals to show seizure behaviour)±standard error.
Test compound effects were also calculated as percentage change in CC50 from the vehicle control group.
Significant difference between drug-treated animals and controls were assessed according to Litchfield and Wilcoxon (1949).

[2] = 20 mg/kg i.p., 30 minutes before the test
[3] = 50 mg/kg i.p., 30 minutes before the test
[4] = 100 mg/kg i.p., 60 minutes before the test
[5] = 200 mg/kg i.p., 60 minutes before the test

## C=C(C)[C@@H]1CC(O)C(C)=C[C@H]1c1c(O)cc(Br)cc1O (single isomer, unassigned) [Compound I]
RjOrl: Swiss mice; [2]
  Forelimb clonus, Compared with Vehicle B (i.p.) %: 0%
  Forelimb clonus (mean ± s.e.m.): 0.8 ± 0.1
RjOrl: Swiss mice; [3]
  Forelimb clonus, Compared with Vehicle B (i.p.) %: −38%
  Forelimb clonus (mean ± s.e.m.): 0.5 ± 0.1
RjOrl: Swiss mice; 100 mg/kg i.p.
  Slight sedation (mice affected): Two mice out of the 13
RjOrl: Swiss mice; [4]
  Forelimb clonus, Compared with Vehicle B (i.p.) %: −88%
  Forelimb clonus (mean ± s.e.m.): 0.1 ± 0.1
RjOrl: Swiss mice; 200 mg/kg i.p.
  Tremor (mice affected): Two mice out of the 14
RjOrl: Swiss mice; 200 mg/kg i.p., 14 mice
  Sedation (mice affected): all mice showed slight (12 mice) to moderate (2 mice) sedation
RjOrl: Swiss mice; [5]
  Forelimb clonus, Compared with Vehicle B (i.p.) %: −63%
  Forelimb clonus (mean ± s.e.m.): 0.3 ± 0.1
[1]
  CC50 +/− SEM: >114 mA
[1]; 6 animals
  tonic hindlimb convulsions in treatment group: did not have any convulsions
